# Peptide text beside a SMILES is read from it.
# Experiments:
# [1] = test system: G- and G+ bacteria; assay: Antimicrobial activity, summary over the strains; type: cell-based; conditions: MIC expressed in μM, compared with IC50 on eukaryotic cells
# Protocol: A standard micro-broth serial dilution assay was used to measure MIC of peptides. MIC was obtained by a microplate reader at 600 nm. MBC was determined as previously described.
# [2] = Plasma stability; type: in vitro ADME, mouse; conditions: for antibacterial activities after plasma incubation: turbidimetry
# Source text: (§2) At indicated time points, samples were denatured with equal volumes of 6 M urea and subjected to HPLC analysis or antibacterial activity evaluation.
# [3] = test system: Penicillin-resistant E. coli; assay: Local E. coli infection in scalded mouse model; type: in vivo, mice; conditions: for subeschar colonies reduced to: topical once a day
# Protocol: To further investigate whether MSI-1 could protect from bacterial infection of the skin, mice were anesthetized with pentobarbital sodium (50 mg/kg, i.p) and shaved on the dorsal surfaces. The depilated skin was secured with 2-cm-diameter plastic containers that filled up with boiling water at contact time 10 s. Afterwards, a full-thickness wound (2 cm in diameter) was cut on the burned skin of each mouse. Penicillin-resistant E. coli suspension (100 µl, 1× 10^10 CFU/ml) was slowly inoculated over wound with a pipette tip, and a gentle stream of air was aimed over the inoculation site until skin appeared wet but absent of any standing volume from the inoculum suspension. Two hours later, vehicle (3% CMC-Na), MSI-1 or polymyxin, which was suspended in sterile CMC-Na (3%) in PBS at concentration of 10, 5, 2.5 mg/ml (MSI-1) or 5 mg/ml (polymyxin), was inoculated on the same area with a pipette tip, 1 ml/kg, once a day (n=15 per group). Mice were fed in cages individually to avoid cross infection and were treated daily for 7 consecutive days. At 3rd and 7th days, cutaneous wound healing and bacteria counts in skin lesion were measured. Moreover, 12 h after the last treatment, blood samples were collected from the retro-orbital venous plexus under anesthesia (pentobarbital sodium, 50 mg/kg). Finally, all animals were euthanized by cervical dislocation to collect the lung samples for counting live bacteria. The contents of TNF-α and IL-6 in skin homogenates and serum were measured by ELISA. Skin lesion was fixed by 4% paraformaldehyde for H&E staining. The expression levels of EGF and VEGF in skin lesion were examined by immunohistochemistry. In addition, the wound scratch assay was also performed on HaCaT cells to further test whether MSI-1 improved wound healing by promoting keratinocyte migration.
# [4] = test system: trypsin; assay: in vitro; conditions: pH 8.2
# Source text: (§3) Aliquots of the mixture were extracted periodically and diluted with water/acetonitrile (3:2, v:v) containing 2% TFA for HPLC detection or for antibacterial activity assay [18].
# [5] = test system: E. coli genomic DNA; assay: Gel retardation assay, DNA binding; conditions: 15 min, 1% agarose gel
# Protocol: Bacterial genomic DNA was obtained by a BacteriaGen DNA Kit and quantified by a Thermo Scientific NanoDrop™ 2000c Spectrophotometer. Bacterial genomic DNA samples were incubated with isovolumetric MSI-1 at room temperature for 15 min. The gel retardation assay for DNA shift was performed by 1% w/v agarose gel (pre-stained by SYBR Green I) electrophoresis. In UV spectroscopic study, different concentrations of peptide were titrated into genomic DNA (0.5 μg/ml). After 15 min to equilibrate, the UV spectra for DNA and MSI-1-DNA complex were recorded at wavelength range of 230-350 nm. In addition, DNA dissolved in Tris-HCl (pH 7.4, CDNA=0.1 mg/ml) was mixed with EB solution (5 μM). After 10 min incubation in the dark, the EB-DNA mixture was added with different concentrations of MSI-1. Thirty minutes later, the fluorescence spectra were recorded at excitation wavelength 535 nm to measure the competitive binding of MSI-1 and EB with bacterial DNA. […] Secondary structure change of E. coli DNA was analyzed. Moreover, the intracellular changes in E. coli morphology was observed by a JEOL 1230 transmission electron microscopy (TEM) after 2 h coincubation with MSI-1.
# [6] = test system: E. coli (penicillin resistant, levofloxacin sensitive); assay: Resistance study, serial passages; type: cell-based; conditions: serial passages at 1/4× MIC; ratio of MIC to that of first-time exposure
# Protocol: (§1) P. aeruginosa and E. coli, which were penicillin resistant but levofloxacin sensitive strains, were exposed to MSI-1, polymyxin and levofloxacin for MIC determination. Resistance study was performed as described previously.
# [7] = test system: P. aeruginosa (penicillin resistant, levofloxacin sensitive); assay: Resistance study, serial passages; type: cell-based; conditions: serial passages at 1/4× MIC; ratio of MIC to that of first-time exposure
# Protocol: as §1
# [8] = pH stability; type: physicochemical
# Protocol: MSI-1 at 2 mg/ml in PBS (pH 7.0), aqueous HCl (pH 3.0) and aqueous NaOH (pH 11.0) were incubated for 2, 4, 12 and 24 h at 37 °C. The remaining MSI-1 was measured by HPLC. In addition, the bacteria colonies survived 1× MIC of HCl or NaOH treated peptide were recorded simultaneously. That is, after 18 h coincubation, the absorbance which represents the bacteria colonies survived, was recorded by a microplate reader at 600 nm.
# [9] = test system: penicillin-resistant E. coli; assay: Bacteria growth curve and viability at sub-MICs; type: cell-based
# Protocol: E. coli were mixed with sub-MICs MSI-1 and OD600 value was recorded every 2 h throughout 26 h of coincubation. In addition, bacteria were suspended with nutrient broth containing MSI-1 and subjected to routine MTT assay after 24 h incubation.
# [10] = target: pepsin (Sus scrofa, UniProt P00791); conditions: peptide:protease 300:1, 0.1 M NH4HCO3 pH 8.2, room temperature, HPLC; peak time shifted from 6.187 to 6.792 min (0.5 h)
# Chain of pepsin (P00791 60-385): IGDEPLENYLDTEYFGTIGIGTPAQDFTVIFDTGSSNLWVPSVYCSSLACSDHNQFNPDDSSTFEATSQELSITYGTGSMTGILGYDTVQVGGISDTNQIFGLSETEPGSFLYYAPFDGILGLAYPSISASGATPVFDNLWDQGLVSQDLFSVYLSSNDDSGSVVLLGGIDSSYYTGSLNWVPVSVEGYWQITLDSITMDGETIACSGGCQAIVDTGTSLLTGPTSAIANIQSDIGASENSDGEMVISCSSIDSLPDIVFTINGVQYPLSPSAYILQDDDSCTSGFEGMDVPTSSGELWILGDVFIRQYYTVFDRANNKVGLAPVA
# Source text: as §3
# [11] = 37 °C for up to 7 days, multigelation at -80 °C for 10 times or boiling at 100 °C for 1 h; HPLC and antibacterial activity
# Protocol: MSI-1 were placed at 37 °C for 7 days, repeated multigelation at -80 °C for 10 times or boiled at 100 °C for 1 h, and then subjected to HPLC analysis or antibacterial activity evaluation as above.
# [12] = test system: C57BL/6 mice; assay: Acute toxicity in mice; type: in vivo; conditions: intraperitoneal, n=6/group
# Protocol: C57BL/6 mice (n=6/group) were intraperitoneally injected with MSI-1 (0, 10, 20, 40, 80 and 100 mg/kg/body weight, respectively). Animals were inspected for adverse effects for 30 min, and survival was monitored for 12 h thereafter. The toxicity severity was classified as Malik U et al previously described.
# [13] = in vitro; conditions: mouse, 20% fresh mouse serum
# Source text: as §2
smiles,measurement,setting,value
CC[C@H](C)[C@H](NC(=O)CN)C(=O)N[C@@H](Cc1c[nH]c2ccccc12)C(=O)N[C@@H](CCCCN)C(=O)N[C@@H](Cc1ccccc1)C(=O)N[C@@H](CC(C)C)C(=O)N[C@@H](CCCCN)C(=O)N[C@@H](CCCCN)C(=O)N[C@@H](C)C(=O)N[C@@H](CCCCN)C(=O)N[C@@H](CCCCN)C(=O)N[C@@H](Cc1ccccc1)C(=O)N[C@@H](Cc1c[nH]c2ccccc12)C(=O)N[C@@H](CCCCN)C(N)=O [MSI-1] (H-GIWKFLKKAKKFWK-NH2),effective antimicrobial concentration in vitro,[1],4.4 to 8.8 µM
same,"remaining at 0.5 h, 1.6 mg/ml","[2]; 20% fresh mouse plasma, 37 °C, 0.5 h, HPLC, read-out: remaining peptide",~77%
same,remaining peptide,"[2]; 20% fresh mouse plasma, 37 °C, 2 h, HPLC",~67.5%
same,antibacterial activities after plasma incubation,"[2]; 20% fresh mouse plasma, 0.5 h",97.2%
same,antibacterial activities after plasma incubation,"[2]; 20% fresh mouse plasma, 2 h",60.7%
same,bacteriostatic activity,"[2]; either mouse plasma or serum, post 2 h coincubation (summary in the discussion)",approximately 50%
same,"remaining at 2 h, 1.6 mg/ml","[2]; fresh mouse plasma or serum (one summary value for both), either mouse plasma or serum, post 2 h coincubation (summary in the discussion), read-out: remaining peptide",60%
same,TNF-α and IL-6 in skin lesion homogenate,"[3]; 10 mg/kg, 7th day, ELISA",strongly reduced
same,subeschar colonies reduced to,"[3]; 10 mg/kg, after 3 days",38.6%
same,subeschar colonies reduced to,"[3]; 10 mg/kg, after 7 days",49%
same,wound closure,"[3]; 3rd and 7th days, especially at 10 mg/kg",significantly improved wound closure
same,bacterial colonies in the lung and blood,"[3]; 7th day, MSI-1 5 and 10 mg/kg, polymyxin B, p<0.01 vs the model group",obviously decreased
same,expression of EGF and VEGF in the burned and infected skin,[3]; immunohistochemistry,no obvious effect
same,remaining at 0.5 h,[4],< 10%
same,dose at which the peptide bound to genomic DNA,[5]; 1/4× MIC,2 µg/mL
same,peptide concentration at which electrophoretic movement of DNA was completely inhibited,[5],higher than 4 μg/ml
same,relative MIC after 15 subcultures,[6],remained stable
same,relative MIC after 15 subcultures,[7],remained stable
same,percentage of remaining MSI-1,"[8]; 2 mg/ml in aqueous HCl (pH 3.0), aqueous NaOH (pH 11.0) or PBS (pH 7.0), 37 °C, within 24 h, HPLC",99%-100%
same,effect of HCl (pH 3.0) and NaOH (pH 11.0) treatment on MIC against bacteria,"[8]; treated peptide at 1× MIC, 18 h, 600 nm",did not affect the MIC
same,growth pattern of bacteria,"[9]; 1/4 and 1/8 MIC, OD600 over 26 h",not significantly altered
same,cell viability vs control,"[9]; sub-MICs, MTT, within 26 h, p>0.05",no significant difference
same,stability in pepsin solution,[10],some peptide hydrolysates might be produced
same,thermal stability,[11],maintained its structure and potent antimicrobial activity
same,adverse events,[12]; 20 mg/kg,no immediate adverse events
same,adverse effects at approximately 5 min post injection,[12]; dose of peptide above 40 mg/kg,one mouse in the MS-1-treated group exhibited narrowing of the eyes
same,"remaining at 0.5 h, 1.6 mg/ml",[13],92.5%
same,"remaining at 2 h, 1.6 mg/ml",[13],53.5%

# Source: paper PMC6956804, “Potent antibacterial activity of MSI-1 derived from the magainin 2 peptide against drug-resistant bacteria” (Theranostics, 2020)
